Data set [1] relates to HepG2. The data set can be described thus: In vitro cytotoxicity, IC50 by MTT method, HepG2. Particulars: Homo sapiens; HepG2 cell strain; read-out: IC50 HepG2. The class given is cell-based, human. The gist of the method:
(§1)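 MTT viability, 48 h exposure: cells 10^5/ml in RPMI1640 + 10% FBS, 37 °C/5% CO2; MTT 4 h, DMSO solubilisation, A490.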
For orientation: Tetrazolium assays rely on reduction of a dye to a coloured formazan, in cell work by metabolically active cells.

For data set [2], the system named is PLA-801. The data set can be described thus: In vitro cytotoxicity, IC50 by MTT method, PLA-801. The class given is cell-based. The note with it: PLA-801 cell strain; read-out: IC50 PLA-801. The gist of the method:
as §1

Data set [3] has as its system Bel-7402. As to the kind of experiment: In vitro cytotoxicity, IC50 by MTT method, Bel-7402. Type of data set: cell-based. The note with it: Homo sapiens, Bel-7402; Bel7402 cell strain; read-out: IC50 Bel7402. The gist of the method:
as §1

In data set [4] the test system is BGC-823. As to the kind of experiment: In vitro cytotoxicity, IC50 by MTT method, BGC-823. The class given is cell-based. Particulars: Homo sapiens, BGC-823; BGC823 cell strain; read-out: IC50 BGC823. In outline: as §1
Data set [5] concerns Hela. As to the kind of experiment: In vitro cytotoxicity, IC50 by MTT method, Hela. Type of data set: cell-based. Particulars: Homo sapiens; Hela cell strain; read-out: IC50 Hela. In outline:
as §1

For data set [6], the system named is Lovo. The data set can be described thus: In vitro cytotoxicity, IC50 by MTT method, Lovo. Type of data set: cell-based. Particulars: Homo sapiens; Lovo cell strain; read-out: IC50 Lovo. The gist of the method:
as §1

In data set [7] the test system is NIH3T3. As to the kind of experiment: In vitro cytotoxicity, IC50 by MTT method, NIH3T3. The class given is cell-based. Particulars: Mus musculus; NIH3T3 cell strain; read-out: IC50 NIH3T3. In outline: as §1

pIC50: −log10 of the molar value. Values joined by “and” are separate entries in the source; they are usually repeats but may differ in a detail not shown here. Equal entries are not always repeated. Where only a bound is given, the exact number is not on record here.

Take `CCOC(=O)c1cc2c3ccccc3n(C)c2cn1` [Compound 30, ethyl 9-methyl-β-carboline-3-carboxylate]: the melting point (usually the temperature of the solid-liquid transition) was in the range of 139 to 140 °C. Further, the pIC50 (usually the IC50 on a negative log10 scale, so that one unit is a factor of ten) in data set [1] was 3.82. Moreover, the pIC50 in data set [2] was 3.92. The pIC50 in data set [3] is 3.85. In data set [4], the pIC50 was 3.82. Further, the pIC50 in data set [5] was 3.74. Also, the pIC50 in data set [6] is 4.00. Also, in data set [7], the pIC50 is 4.00.

The compound `CCCCn1c2ccccc2c2cc(C(=O)OCC)ncc21` [Compound 32, ethyl 9-butyl-β-carboline-3-carboxylate] showed a melting point of 76 to 77 °C. Also, the pIC50 in data set [1] was 3.32. In addition, the pIC50 in data set [2] is 4.15. The pIC50 in data set [3] is 3.11. Further, in data set [4], the pIC50 was 3.12. The negative logarithm of the IC50 (pIC50) in data set [5] is 3.31. Also, the pIC50 in data set [6] was 3.77. The pIC50 in data set [7] is 4.22.

Regarding `Cn1c2ccccc2c2cc(C(=O)O)ncc21` [Compound 34, 9-methyl-β-carboline-3-carboxylic acid], the melting point fell in the range of 267 to 269 °C. Besides, in data set [1], the pIC50 was 3.82. For the same compound, in data set [2], the pIC50 is 3.57. In addition, the pIC50 in data set [3] is 3.48. For the same compound, the pIC50 in data set [4] is 3.89. Further, in data set [5], the pIC50 was 4.05. The pIC50 in data set [6] is 4.05. The pIC50 in data set [7] is 3.89.

`CCn1c2ccccc2c2cc(C(=O)O)ncc21` [Compound 35, 9-ethyl-β-carboline-3-carboxylic acid] displayed a melting point of 201 to 202 °C. Moreover, the pIC50 in data set [1] was 3.74. In addition, in data set [2], the negative-log IC50 (pIC50) is 3.68. Further, the pIC50 in data set [3] was 3.64. Also, the pIC50 in data set [4] was 3.80. Also, in data set [5], the pIC50 was 3.74. In data set [6], the pIC50 is 4.22. The pIC50 in data set [7] is 3.85.

Compound `CCCCOC(=O)c1cc2c3ccccc3n(C)c2cn1` [Compound 38, butyl 9-methyl-β-carboline-3-carboxylate] had a melting point of 235 to 238 °C. For the same compound, in data set [1], the negative-log IC50 (pIC50) is 2.79. For the same compound, the negative-log IC50 (pIC50) in data set [2] is less than 2.52. Besides, the pIC50 in data set [3] was less than 2.52. The pIC50 in data set [4] was less than 2.52. Also, the negative-log IC50 (pIC50) in data set [5] was less than 2.52. Also, in data set [6], the pIC50 is 2.60. The pIC50 in data set [7] was less than 2.52.

Turning to `CCCCOC(=O)c1cc2c3ccccc3n(CCCC)c2cn1` [Compound 40, butyl 9-butyl-β-carboline-3-carboxylate], the melting point was in the range of 94 to 95 °C. For the same compound, in data set [1], the pIC50 was 2.97. Moreover, the pIC50 in data set [2] was 2.67. Also, the pIC50 in data set [3] is 2.97. The pIC50 in data set [4] was 4.15. The negative logarithm of the IC50 (pIC50) in data set [5] was 3.02. In addition, the pIC50 in data set [6] is 4.40. Moreover, the negative-log IC50 (pIC50) in data set [7] was 4.30.

As for `CCCCOC(=O)c1cc2c3ccccc3n(Cc3ccccc3)c2cn1` [Compound 41, butyl 9-benzyl-β-carboline-3-carboxylate], the melting point is 105 to 106 °C and 104 to 105 °C. Moreover, the pIC50 in data set [1] is less than 2.52. In addition, the pIC50 in data set [2] is 3.00. For the same compound, the pIC50 in data set [3] is less than 2.52. Also, the pIC50 in data set [4] was less than 2.52. Moreover, in data set [5], the pIC50 was less than 2.52. In data set [6], the pIC50 is 2.97. Besides, in data set [7], the pIC50 was less than 2.52.

On to `O=C(OCc1ccccc1)c1cc2c3ccccc3n(Cc3ccccc3)c2cn1` [Compound 44, benzyl 9-benzyl-β-carboline-3-carboxylate], for which the melting point fell in the range of 169 to 170 °C. The pIC50 in data set [1] is less than 2.52. Besides, in data set [2], the negative logarithm of the IC50 (pIC50) is less than 2.52. Further, in data set [3], the pIC50 was less than 2.52. Further, the pIC50 in data set [4] was less than 2.52. Further, the pIC50 in data set [5] is less than 2.52. For the same compound, the pIC50 in data set [6] is less than 2.52. Also, the pIC50 in data set [7] was less than 2.52.

Compound `CCOC(=O)c1cc2c3ccccc3n(CCCc3ccccc3)c2cn1` [Compound 45, ethyl 9-phenylpropyl-β-carboline-3-carboxylate] had a melting point of 140 to 142 °C. Moreover, the negative logarithm of the IC50 (pIC50) in data set [1] was less than 2.52. The pIC50 in data set [2] was less than 2.52. In data set [3], the pIC50 was 3.41. In addition, in data set [4], the pIC50 was less than 2.52. For the same compound, the pIC50 in data set [5] was less than 2.52. The pIC50 in data set [6] was less than 2.52. Also, the pIC50 in data set [7] was less than 2.52.

(Values after patent publication US20090227619A1, “Harmine derivatives, intermediates used in their preparations, preparation processes and use therefo” (priority 2003, published 2009).)
